Among the test systems are A549 NSCLC; BT-549 breast; DU-145 prostate; HCT-15 colon; NCI-H226 lung; NCI/ADR-RES ovarian; OVCAR-5 ovarian; SK-MEL-5 melanoma; SN12C renal; TK-10 renal.
What all share (assay): growth of human tumour cells (NCI), 48 h

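Five concentrations, 48 hours, 96-well plates. At the GI50, growth is halved. The concentration for full growth arrest is given as TGI.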 Where only a bound is given, the exact number is not on record here.

As for `CC(=S)N=Cc1c(O)cc(C)oc1=O`, the TGI in the assay with A549 NSCLC, with BT-549 breast, with DU-145 prostate, in the assay with HCT-15 colon, in the assay with NCI-H226 lung and in the assay on NCI/ADR-RES ovarian was > 100 µM in each case. Moreover, the TGI with OVCAR-5 ovarian, with SK-MEL-5 melanoma, in the assay on SN12C renal and in the assay with TK-10 renal was > 100 µM throughout.
Regarding `CC1(C(=O)O)CCCC1C(=O)O` (stereo unspecified), the TGI in the assay on A549 NSCLC, in the assay on BT-549 breast, in the assay on DU-145 prostate, in the assay on HCT-15 colon, with NCI-H226 lung and with NCI/ADR-RES ovarian was > 100 µM each time. The TGI with OVCAR-5 ovarian, in the assay with SK-MEL-5 melanoma, with SN12C renal and in the assay on TK-10 renal was > 100 µM in each case.
Turning to `N#Cc1c(-c2ccc(F)cc2)nc(N/N=C/c2c[nH]c3ccccc23)nc1N1CCOCC1`, the GI50 was 3.99 µM in the assay with A549 NSCLC; 5.43 µM in the assay on BT-549 breast; 2.9 µM in the assay on DU-145 prostate; 0.784 µM with HCT-15 colon; 24.2 µM in the assay on NCI-H226 lung; 13.2 µM with NCI/ADR-RES ovarian. Also, the GI50 in the assay with OVCAR-5 ovarian was 19.5 µM; in the assay on SK-MEL-5 melanoma it was 10.9 µM; with SN12C renal it was 16.6 µM; in the assay on TK-10 renal it was 15.5 µM. The TGI with A549 NSCLC is 69.9 µM; with BT-549 breast it was 30.9 µM; in the assay with DU-145 prostate, > 100 µM; with HCT-15 colon, 4.56 µM; in the assay on NCI-H226 lung, 88 µM; in the assay with NCI/ADR-RES ovarian it was > 100 µM. The TGI with OVCAR-5 ovarian is 74 µM; in the assay with SK-MEL-5 melanoma it was 25.9 µM; in the assay with SN12C renal, > 100 µM; in the assay on TK-10 renal, 61 µM.
With `CCC(C)C(=O)OC1CC2(C)C(c3ccoc3)OC(=O)CC23OC2(C)OC34C(OC(=O)C(C)C)C3(O)C(OC(=O)C5(C)OC5C)C5(C)CC3(O)C(C)(C5CC(=O)OC)C14O2` (stereo unspecified), the TGI in the assay on A549 NSCLC, in the assay with BT-549 breast, in the assay with DU-145 prostate, in the assay on HCT-15 colon, in the assay with NCI-H226 lung and with NCI/ADR-RES ovarian was > 100 µM in each case. For the same compound, the TGI in the assay on OVCAR-5 ovarian was > 100 µM; in the assay on SK-MEL-5 melanoma, 87 µM; with SN12C renal, > 100 µM; in the assay with TK-10 renal, > 100 µM.
On to `CCC(=O)Oc1c2ccsc2c(OC(=O)CC)c2ccsc12`, for which the TGI in the assay with A549 NSCLC was found to be 4.51 µM; in the assay with BT-549 breast, 0.361 µM; in the assay on DU-145 prostate it was 0.679 µM; in the assay with HCT-15 colon it was 1.07 µM; with NCI-H226 lung, 4.09 µM; in the assay on NCI/ADR-RES ovarian it was 0.832 µM. Further, the TGI stood at 3.35 µM in the assay with OVCAR-5 ovarian, 0.216 µM in the assay on SK-MEL-5 melanoma, 1.16 µM with SN12C renal and 5.25 µM in the assay on TK-10 renal.
As for `CC(=O)OC/C=C(/C=C/CNC1CCCCC1)OC(C)=O`, the TGI in the assay with A549 NSCLC was > 100 µM; in the assay with BT-549 breast it was 31.3 µM; with DU-145 prostate, 31.6 µM; in the assay with HCT-15 colon, 37 µM; with NCI-H226 lung it was 98.5 µM; in the assay with NCI/ADR-RES ovarian it was 44.6 µM. In addition, the TGI in the assay on OVCAR-5 ovarian was found to be 29.9 µM; in the assay on SK-MEL-5 melanoma it was 33.5 µM; with SN12C renal, 32.1 µM; in the assay on TK-10 renal, 30.6 µM.
In the case of `COc1ccc2cc(NC(=O)N/N=C\c3ccc(Cl)cc3)ccc2c1`, the TGI in the assay on A549 NSCLC, with BT-549 breast, in the assay with DU-145 prostate, in the assay with HCT-15 colon, with NCI-H226 lung and in the assay with NCI/ADR-RES ovarian was > 100 µM throughout. Further, the TGI in the assay with OVCAR-5 ovarian, with SN12C renal and in the assay on TK-10 renal was > 100 µM in each case.
As for `CN(C)S(=O)(=O)Nc1nnc(S(N)(=O)=O)s1`, the TGI with A549 NSCLC, in the assay on BT-549 breast, in the assay with DU-145 prostate, in the assay on HCT-15 colon, in the assay with NCI-H226 lung and in the assay with NCI/ADR-RES ovarian was > 100 µM each time. The TGI in the assay on OVCAR-5 ovarian, in the assay on SK-MEL-5 melanoma and with TK-10 renal was > 100 µM throughout.
In the case of `Cc1c2ncccc2cc2oc3ccccc3c(=O)c12`, the TGI in the assay with A549 NSCLC, in the assay with BT-549 breast, in the assay on DU-145 prostate, in the assay on HCT-15 colon, in the assay with NCI-H226 lung and with NCI/ADR-RES ovarian was > 100 µM in each case. Moreover, the TGI in the assay with OVCAR-5 ovarian was 59.7 µM; in the assay on SK-MEL-5 melanoma, > 100 µM; with SN12C renal, > 100 µM; in the assay on TK-10 renal, > 100 µM.
Take `COc1cc(I)c2c3c1OC1C34CCN(C)C(C2)C4=CC(I)C1(OC)OC` (stereo unspecified): the TGI with A549 NSCLC is > 100 µM; with BT-549 breast it was 48.4 µM; in the assay on DU-145 prostate, 47.5 µM; in the assay on HCT-15 colon, 63.4 µM; in the assay with NCI-H226 lung, 70.5 µM; in the assay with NCI/ADR-RES ovarian, 68 µM. The TGI was found to be 81.6 µM in the assay on OVCAR-5 ovarian, 34 µM with SK-MEL-5 melanoma, 31.9 µM in the assay on SN12C renal and 51.1 µM with TK-10 renal.
For `Brc1cccc(N=NN2CCCC2)c1`, the TGI with BT-549 breast, in the assay with DU-145 prostate, in the assay on HCT-15 colon, with NCI-H226 lung, in the assay on NCI/ADR-RES ovarian and in the assay with OVCAR-5 ovarian was > 100 µM throughout. Further, the TGI with SK-MEL-5 melanoma, with SN12C renal and in the assay on TK-10 renal was > 100 µM throughout.
Turning to `CC(=O)OCC(OC(C)=O)C1C[C@H]2O[C@@H]3[C@H](C[C@H]2O1)O[C@@]1(C[C@@H]3C)C[C@H](C)[C@@H]2O[C@]3(C[C@@H]2O1)C[C@H]1O[C@H]2[C@H](C)[C@H]4OC(=O)CC5CC[C@H]6OC7[C@H]8O[C@]9(CC[C@H]%10CC(O)(CO)[C@H](CC[C@H]%11C[C@@H](C)C(O)(CO)C(C[C@@H]4O[C@H]2C[C@H]1O3)O%11)O%10)CC8O[C@@H]7[C@@H](O9)[C@H]6O5` (stereo partly specified), the TGI was > 1 µM in the assay on A549 NSCLC; 0.00923 µM in the assay on BT-549 breast; 0.0688 µM with DU-145 prostate; 0.142 µM in the assay with NCI-H226 lung; > 0.205 µM in the assay on NCI/ADR-RES ovarian; > 1 µM in the assay with OVCAR-5 ovarian. The TGI with SK-MEL-5 melanoma, in the assay with SN12C renal and with TK-10 renal was > 1 µM each time.

Values taken from PubChem BioAssay (NCI).
